According to patent publication US20210251228A1, “METHODS FOR REPELLING DROSOPHILA SPECIES USING 2-PENTYLFURAN” (The United States of America, as represented by the …, priority 2020, published 2021):

Assays:
Drosophila suzukii = test: No-choice oviposition cage experiment: release rate of 2-pentylfuran on raspberry; type: in vivo; details: 2 h
Method: Effects of Release Rate of 2-pentylfuran on SWD Oviposition on Raspberry: No Choice Test. Based on the significant effect of 2-pentylfuran using an unknown release rate in the field, to better understand concentration response of SWD to 2-pentylfuran, we evaluated the response of adult SWD to different ranges of 2-pentylfuran release rates in 2 h no choice oviposition cage experiments conducted in the greenhouse (25° C.; natural light; 40-60% r.h.). Cages (60 cm W×60 cm H×180 cm L, BioQuip, Rancho Dominguez, Calif.) were shrouded with a piece of shade cloth (120 cm W×120 cm H×300 cm L). […] Actual release rates from each dispenser used were measured for each assay by recording weight of the dispensers prior and post assay. […] Upon completion of the assay, total number of SWD eggs oviposited into the raspberries was determined with the aid of a dissecting microscope.
(§1) Statistical Analyses: Trap catch data from multiple-choice assay and two-choice assay were analyzed in a randomized block design with block as a random factor and different EAD-active compounds as a fixed factor using Poisson distribution with log link function and maximum likelihood estimation (Proc Glimmix, SAS Institute, SAS/STAT 9.2 User's Guide, Second Edition, 2009, SAS Institute Inc., Cary, N.C.). […]

Drosophila melanogaster = test: Two-choice bioassay: attraction to apple cider vinegar traps; type: in vivo; details: 20 h
Method: Two-Choice Bioassay with Drosophila melanogaster: The two-choice assay (N=5) was conducted with an arena design using a dome cage (30 cm W×30 cm L×30 cm H; shop.bugdorm.com) as described in Cha et al. (2012) to evaluate the effect of 2-pentylfuran on D. melanogaster, vinegar fly, attraction to apple cider vinegar, a known attractant. The same gate cup trap design was used as described above in Multiple-Choice Bioassay section. Both traps had 20 ml of apple cider vinegar with soap. […] A cotton ball (3 cm diameter) soaked with distilled water was placed in the center of the arena to provide water to D. melanogaster. . Adult flies (˜50, roughly 1:1 male: female ratio, 7-10 days old) were released in each arena. The number of flies inside treatment and control traps was counted after 20 h.
as §1

For CCCCCc1ccco1 [2-pentylfuran], the “release rate at which SWD oviposition began to decline relative to control” value (Drosophila suzukii; greenhouse cages, raspberries, N=12) was “around 2.5 mg/h”, the “reduction in number of eggs laid compared to control” value (Drosophila suzukii; high release rate (5 and 10 mg/h)) was 58% and the “effect on D. melanogaster attraction to apple cider vinegar” value (Drosophila melanogaster; 2-pentylfuran 10 mg/h sachet in gated trap, N=5) was “significantly reduced”. For the same compound, the “number of D. melanogaster captured in traps baited with apple cider vinegar and 2-pentylfuran” value (Drosophila melanogaster; among five replications, 10 mg/h, 50~67 in ACV-only traps) was “one”.
